Holding throughout (format): biochemical
For experiment [1], the target named is T1, αS aggregation in the presence of LUVs (DOPS) (Homo sapiens, UniProt P37840).
T1 construct: made in house; host or cells: Escherichia coli BL21(DE3), periplasm
The experiment in a line: Lipid (LUVs, DOPS) catalyzed αS aggregation, ThT. To be noted: equimolar ratio. The protocol:
The aggregation kinetics of αS was monitored using ThT fluorescence assay (λex = 450 nm and λem = 485 nm). To study the aggregation kinetics of αS, the ThT dye at a final concentration of 50 μM was added to 100 μM αS solution in the aggregation buffer (1 x PBS buffer) with and without various concentrations of SK-129 in a Costar black 96–well plate (Corning Inc., Kennebunk, ME). The small molecules were dissolved in dimethyl sulfoxide (DMSO; final DMSO concentration = 0.5%, v/v). The final volume in each well was 140 μL. The plate was incubated at 37 °C with 16 min shaking (434 rpm) and 44 min without shaking in an Infinite M200PRO plate reader (Tecan, Männedorf, Switzerland) and fluorescence was recorded after every hour. We used two methods to quantify the effect of molecules on the aggregation of αS; either we have reported the t50 (time required to reach 50% fluorescence of ThT), which was extracted by fitting the ThT curve as a sigmoidal fit or the absolute ThT fluorescence intensity was reported. […] In the second method, we determined the final ThT fluorescence intensity for the aggregation of αS/Aβ42(with or without ligands) as an average of three separate experiments. […]
lipid-free and lipid-catalyzed aggregation of αS was monitored after 7 days. […]
equimolar ratio after four days. The data were expressed as mean and the error bars report the […]

For experiment [2], the target named is T2, αS1 seed-catalyzed aggregation (Homo sapiens, UniProt P37840, DEL6-12).
T2 construct: made in house; host or cells: Escherichia coli BL21(DE3)
As to the kind of experiment: Seed-catalyzed ThT aggregation assay (10% WT αS seeds), αS1. To be noted: αS1, equimolar ratio. The protocol: (§1) Seed-catalyzed αS aggregation assay was performed similarly to a previously described protocol. Briefly, 100 μM monomeric WT αS solution (200 μL, in 1x PBS buffer) was placed into a ThermoMixer (Eppendorf, Hamberg, Germany) and shook for five days at a rate of […] and 37 °C. The solution was sonicated for 10 min and used as αS seeds. The seed-catalyzed aggregation of WT αS/ αS variants was performed by adding αS seeds (10% seeds, αS in monomeric concentration, v/v) into 140 μL of fresh 100 μM WT αS/ αS variants solution and aggregation was started with constant shaking at a rate of […] and 37 °C. The aggregation of proteins was monitored at the indicated times (See the main manuscript) using the above-mentioned method.
(§2) The ThT aggregation assay for each protein (WT αS and αS variants) in the presence of SK-129 was carried out the above-mentioned method. SK-129 (from 10 mM stock solution in DMSO) was added at an equimolar ratio (1% DMSO, v/v) to the proteins at the start of the aggregation experiment. The concentration of DMSO was kept constant (1%, v/v) in protein (WT αS and αS variants), control, and protein+molecule solutions. The kinetic profiles of protein aggregation were processed using OriginPro software (Version 9.1). Kinetic curves were fit using a built-in sigmoidal fit in the OriginLab.

In experiment [3] the target is T3, αS seed-catalyzed aggregation (Homo sapiens, UniProt P37840).
T3 construct: made in house; host or cells: Escherichia coli BL21(DE3), periplasm
As to the kind of experiment: Seed-catalyzed ThT aggregation assay (10% WT αS seeds), WT αS. To be noted: equimolar ratio. On the procedure:
as §1, §2

The values below come from article PMC9046208, “Foldamers reveal and validate therapeutic targets associated with toxic α-synuclein self-assembly” (Nature Communications, 2022).

The structures appear in SMILES notation.

Turning to `COC(=O)c1cc(OCC(=O)O)c2cccc(NC(=O)c3cc(OC(C)C)c4cccc(NC(=O)c5cc(OCC(=O)O)c6cccc(NC(=O)c7cc(OC(C)C)c8cccc([N+](=O)[O-])c8n7)c6n5)c4n3)c2n1` [SK-129], the “effect on lipid catalyzed aggregation of αS” value in experiment [1] is on record as “wholly inhibited”. Moreover, the “effect on seed-catalyzed aggregation” value in experiment [2] and in experiment [3] was “wholly suppressed” throughout.
